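Briefly, cells in 96-well plates were exposed to five compound concentrations for 48 h, and endpoints were estimated by linear interpolation. TGI: total growth inhibition.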
How the values were obtained:
Assay in all cases: NCI-60 cell line screen, 48 h
SW-620 colon = system: SW-620 colon
NCI-H522 lung = system: NCI-H522 lung
MOLT-4 leukemia = system: MOLT-4 leukemia
SF-539 CNS = system: SF-539 CNS
DMS 273 small cell lung = system: DMS 273 small cell lung
ACHN renal = system: ACHN renal
MALME-3M melanoma = system: MALME-3M melanoma
UACC-62 melanoma = system: UACC-62 melanoma
RXF 393 renal = system: RXF 393 renal
OVCAR-8 ovarian = system: OVCAR-8 ovarian
M14 melanoma = system: M14 melanoma
CAKI-1 renal = system: CAKI-1 renal
LOX IMVI melanoma = system: LOX IMVI melanoma
SK-OV-3 ovarian = system: SK-OV-3 ovarian
786-0 renal = system: 786-0 renal
EKVX NSCLC = system: EKVX NSCLC
SF-268 CNS = system: SF-268 CNS
A549 NSCLC = system: A549 NSCLC
DMS 114 small cell lung = system: DMS 114 small cell lung
OVCAR-3 ovarian = system: OVCAR-3 ovarian
IGROV1 ovarian = system: IGROV1 ovarian
HT29 colon = system: HT29 colon
OVCAR-5 ovarian = system: OVCAR-5 ovarian
UO-31 renal = system: UO-31 renal
TK-10 renal = system: TK-10 renal
HCC-2998 colon = system: HCC-2998 colon
RPMI-8226 leukemia = system: RPMI-8226 leukemia
NCI-H460 lung = system: NCI-H460 lung
RXF-631 renal = system: RXF-631 renal
KM20L2 colon = system: KM20L2 colon
DLD-1 colon = system: DLD-1 colon
UACC-257 melanoma = system: UACC-257 melanoma
K-562 leukemia = system: K-562 leukemia
A498 renal = system: A498 renal
HCT-116 colon = system: HCT-116 colon
NCI-H23 lung = system: NCI-H23 lung
HOP-92 NSCLC = system: HOP-92 NSCLC
SK-MEL-28 melanoma = system: SK-MEL-28 melanoma
SF-295 CNS = system: SF-295 CNS
NCI-H226 lung = system: NCI-H226 lung
SNB-19 CNS = system: SNB-19 CNS
OVCAR-4 ovarian = system: OVCAR-4 ovarian
HL-60(TB) leukemia = system: HL-60(TB) leukemia
COLO 205 colon = system: COLO 205 colon
HOP-62 NSCLC = system: HOP-62 NSCLC
SK-MEL-5 melanoma = system: SK-MEL-5 melanoma
LXFL 529 NSCLC = system: LXFL 529 NSCLC
HOP-18 NSCLC = system: HOP-18 NSCLC
M19-MEL melanoma = system: M19-MEL melanoma
U251 CNS = system: U251 CNS
SN12C renal = system: SN12C renal
KM12 colon = system: KM12 colon
SNB-78 CNS = system: SNB-78 CNS
XF 498 CNS = system: XF 498 CNS
SNB-75 CNS = system: SNB-75 CNS
SK-MEL-2 melanoma = system: SK-MEL-2 melanoma
CCRF-CEM leukemia = system: CCRF-CEM leukemia
SR leukemia = system: SR leukemia
HCT-15 colon = system: HCT-15 colon

SMILES: Cc1cc(C)nc(NS(=O)(=O)c2ccc(NC(=O)c3ccc(Cl)c4c(Nc5ccc(S(=O)(=O)Nc6cc(C)on6)cc5)c5ccccc5nc34)cc2)n1
- TGI (SW-620 colon): 33.1 µM
- TGI (NCI-H522 lung): 31.8 µM
- TGI (MOLT-4 leukemia): 70.9 µM
- TGI (SF-539 CNS): 34.6 µM
- TGI (DMS 273 small cell lung): 31.9 µM
- TGI (ACHN renal): 36.1 µM
- TGI (MALME-3M melanoma): 40 µM
- TGI (UACC-62 melanoma): 32.3 µM
- TGI (RXF 393 renal): 28 µM
- TGI (OVCAR-8 ovarian): 30.9 µM
- TGI (M14 melanoma): 36.3 µM
- TGI (CAKI-1 renal): 29.5 µM
- TGI (LOX IMVI melanoma): 30 µM
- TGI (SK-OV-3 ovarian): 35.9 µM
- TGI (786-0 renal): 30.9 µM
- TGI (EKVX NSCLC): 33.9 µM
- TGI (SF-268 CNS): 28.9 µM
- TGI (A549 NSCLC): 40.7 µM
- TGI (DMS 114 small cell lung): 32.6 µM
- TGI (OVCAR-3 ovarian): 30.4 µM
- TGI (IGROV1 ovarian): 37.3 µM
- TGI (HT29 colon): 35.8 µM
- TGI (OVCAR-5 ovarian): 35.7 µM
- TGI (UO-31 renal): 31.7 µM
- TGI (TK-10 renal): 32.3 µM
- TGI (HCC-2998 colon): 33 µM
- TGI (RPMI-8226 leukemia): 50.3 µM
- TGI (NCI-H460 lung): 36.3 µM
- TGI (RXF-631 renal): 33.7 µM
- TGI (KM20L2 colon): 32.6 µM
- TGI (DLD-1 colon): 31.6 µM
- TGI (UACC-257 melanoma): 32.2 µM
- TGI (K-562 leukemia): 68.5 µM
- TGI (A498 renal): 29.1 µM
- TGI (HCT-116 colon): 39.9 µM
- TGI (NCI-H23 lung): 29.7 µM
- TGI (HOP-92 NSCLC): 30.3 µM
- TGI (SK-MEL-28 melanoma): 32.9 µM
- TGI (SF-295 CNS): 32.7 µM
- TGI (NCI-H226 lung): 32.9 µM
- TGI (SNB-19 CNS): 30.8 µM
- TGI (OVCAR-4 ovarian): 30.7 µM
- TGI (HL-60(TB) leukemia): 27.2 µM
- TGI (COLO 205 colon): 32.3 µM
- TGI (HOP-62 NSCLC): 30.6 µM
- TGI (SK-MEL-5 melanoma): 30 µM
- TGI (LXFL 529 NSCLC): 30.7 µM
- TGI (HOP-18 NSCLC): 29.2 µM
- TGI (M19-MEL melanoma): 39.7 µM
- TGI (U251 CNS): 28.9 µM
- TGI (SN12C renal): 36.5 µM
- TGI (KM12 colon): 33.7 µM
- TGI (SNB-78 CNS): 37.2 µM

SMILES: COC(=O)CCC1(NS(=O)(=O)c2ccc(C)cc2)CCC(C(C)(C)C)CC1 (stereo not given)
- TGI (SW-620 colon): 37.3 µM
- TGI (NCI-H522 lung): 21.3 µM
- TGI (MOLT-4 leukemia): 25.2 µM
- TGI (SF-539 CNS): 26.2 µM
- TGI (DMS 273 small cell lung): 31.2 µM
- TGI (MALME-3M melanoma): 35.4 µM
- TGI (UACC-62 melanoma): 26.4 µM
- TGI (XF 498 CNS): 30.7 µM
- TGI (OVCAR-8 ovarian): 40.7 µM
- TGI (M14 melanoma): 33.7 µM
- TGI (CAKI-1 renal): 27.3 µM
- TGI (LOX IMVI melanoma): 38 µM
- TGI (SK-OV-3 ovarian): > 100 µM
- TGI (786-0 renal): 29 µM
- TGI (A549 NSCLC): 73.4 µM
- TGI (DMS 114 small cell lung): 20.3 µM
- TGI (OVCAR-3 ovarian): 23.2 µM
- TGI (SNB-75 CNS): 41.2 µM
- TGI (IGROV1 ovarian): 41.7 µM
- TGI (HT29 colon): 31.8 µM
- TGI (OVCAR-5 ovarian): 32.8 µM
- TGI (UO-31 renal): 16 µM
- TGI (TK-10 renal): 65.4 µM
- TGI (HCC-2998 colon): 30.3 µM
- TGI (RPMI-8226 leukemia): 21.4 µM
- TGI (NCI-H460 lung): 92 µM
- TGI (RXF-631 renal): 45.2 µM
- TGI (DLD-1 colon): 65.9 µM
- TGI (UACC-257 melanoma): 24.7 µM
- TGI (K-562 leukemia): 33.7 µM
- TGI (A498 renal): 28.8 µM
- TGI (HCT-116 colon): 22.2 µM
- TGI (SK-MEL-2 melanoma): 33.5 µM
- TGI (NCI-H23 lung): 29.2 µM
- TGI (HOP-92 NSCLC): 27.1 µM
- TGI (SK-MEL-28 melanoma): 25.3 µM
- TGI (SF-295 CNS): 26.5 µM
- TGI (SNB-19 CNS): 35.6 µM
- TGI (OVCAR-4 ovarian): 32.1 µM
- TGI (HL-60(TB) leukemia): 11.8 µM
- TGI (COLO 205 colon): 26.8 µM
- TGI (HOP-62 NSCLC): 36.1 µM
- TGI (SK-MEL-5 melanoma): 19.3 µM
- TGI (LXFL 529 NSCLC): 68.3 µM
- TGI (CCRF-CEM leukemia): 37 µM
- TGI (M19-MEL melanoma): 25.2 µM
- TGI (U251 CNS): 29 µM
- TGI (SN12C renal): 28.5 µM
- TGI (KM12 colon): 44.7 µM
- TGI (SNB-78 CNS): 67.2 µM

SMILES: COc1cccc(CC(C)N)c1 (stereo not given)
- TGI (SW-620 colon): > 100 µM
- TGI (NCI-H522 lung): > 100 µM
- TGI (MOLT-4 leukemia): > 100 µM
- TGI (SF-539 CNS): > 100 µM
- TGI (DMS 273 small cell lung): > 100 µM
- TGI (ACHN renal): > 100 µM
- TGI (MALME-3M melanoma): > 100 µM
- TGI (UACC-62 melanoma): > 100 µM
- TGI (SR leukemia): > 100 µM
- TGI (RXF 393 renal): > 100 µM
- TGI (OVCAR-8 ovarian): > 100 µM
- TGI (M14 melanoma): > 100 µM
- TGI (CAKI-1 renal): > 100 µM
- TGI (LOX IMVI melanoma): > 100 µM
- TGI (SK-OV-3 ovarian): > 100 µM
- TGI (786-0 renal): > 100 µM
- TGI (EKVX NSCLC): > 100 µM
- TGI (SF-268 CNS): > 100 µM
- TGI (A549 NSCLC): > 100 µM
- TGI (DMS 114 small cell lung): > 100 µM
- TGI (OVCAR-3 ovarian): > 100 µM
- TGI (SNB-75 CNS): > 100 µM
- TGI (IGROV1 ovarian): > 100 µM
- TGI (HT29 colon): > 100 µM
- TGI (OVCAR-5 ovarian): > 100 µM
- TGI (UO-31 renal): > 100 µM
- TGI (TK-10 renal): > 100 µM
- TGI (HCC-2998 colon): > 100 µM
- TGI (RPMI-8226 leukemia): > 100 µM
- TGI (NCI-H460 lung): > 100 µM
- TGI (RXF-631 renal): > 100 µM
- TGI (KM20L2 colon): > 100 µM
- TGI (DLD-1 colon): > 100 µM
- TGI (UACC-257 melanoma): > 100 µM
- TGI (K-562 leukemia): > 100 µM
- TGI (A498 renal): > 100 µM
- TGI (HCT-15 colon): > 100 µM
- TGI (HCT-116 colon): > 100 µM
- TGI (SK-MEL-2 melanoma): > 100 µM
- TGI (NCI-H23 lung): > 100 µM
- TGI (HOP-92 NSCLC): > 100 µM
- TGI (SK-MEL-28 melanoma): > 100 µM
- TGI (SF-295 CNS): > 100 µM
- TGI (NCI-H226 lung): > 100 µM
- TGI (SNB-19 CNS): > 100 µM
- TGI (OVCAR-4 ovarian): > 100 µM
- TGI (HL-60(TB) leukemia): > 100 µM
- TGI (COLO 205 colon): > 100 µM
- TGI (HOP-62 NSCLC): > 100 µM
- TGI (SK-MEL-5 melanoma): > 100 µM
- TGI (LXFL 529 NSCLC): > 100 µM
- TGI (HOP-18 NSCLC): > 100 µM
- TGI (CCRF-CEM leukemia): > 100 µM
- TGI (U251 CNS): > 100 µM
- TGI (SN12C renal): > 100 µM
- TGI (KM12 colon): > 100 µM
- TGI (SNB-78 CNS): > 100 µM

— PubChem BioAssay (NCI)
